For data set [1], the system named is LPS-induced lung neutrophil influx. Put plainly: LPS-induced lung neutrophil influx in male Wistar rats. The class given is in vivo, rat. To be noted: Rattus norvegicus, Neutrophil, oral, data not shown. The text has this: (§1) Compared with other animal species used to study emesis induction by PDE4 inhibitors, like ferrets, dogs, minipigs, or monkeys, Suncus murinus allows the testing of a sufficient number of animals to provide a high statistical power. […] Male Suncus murinus (weight 50–55 g) from Boehringer Ingelheim (Biberach an der Riss, Germany) or male Wistar rats (200–250 g, Charles River), eight animals per group, were used. […] For this purpose, animals in the positive control and treatment groups were put into a circular Plexiglas chamber with 16 pie-like compartments for one animal each, and were consecutively exposed to nebulized LPS for 30 min. The LPS solution used for nebulization contained 1 mg/mL LPS in phosphate-buffered saline (PBS). Nebulization was performed with the commercially available PARI Master® nebulizer with a PARI Master® LL adapter (Pari GmbH, Starnberg, Germany). 4 h after LPS exposure, the animals were anesthetized and euthanized by cervical dislocation. After sacrifice, the trachea was cannulated and bronchoalveolar lavage was performed by instilling and re-aspirating two-times 1 mL (Suncus murinus) or 5 mL (rat) lavage buffer (PBS +2% bovine serum albumin). BALF volumes were recorded manually. Determination of neutrophil numbers in BALF was performed using a blood hemacytometer (Sysmex XT-1800i, Kobe, Japan).

For data set [2], the system named is LPS-induced neutrophil influx into the BALF. Put plainly: LPS-induced neutrophil influx into the BALF of Suncus murinus. The class given is in vivo. The note with it: Neutrophil, oral, 30 min before nebulized LPS, read-out: ED50 LPS-induced BALF neutrophils.
Excerpt: as §1

In a further data set the test system is Suncus murinus. Put plainly: Determination of emesis in male Suncus murinus. Type of data set: in vivo. The method, then:
All animals (50–55 g) were dosed orally by gavage immediately before transfer to whole-body plethysmography boxes. The volume of application was set to 10 mL/kg body weight. For assessment of the emetic events, animals were placed in the whole-body plethysmography boxes without any access to feed or water for 3 h. The whole-body plethysmography system used to detect emetic events consisted of five major components: 1) plethysmography boxes for mice (Buxco®, PLY 3211-F, Data Sciences International, New Brighton, MN, United States), 2) a pressure transducer with an amplifier, 3) a bias flow regulator, 4) a PC-based system to receive and process the amplified signals, and 5) a PC-based data acquisition system (NOTOCORD-hem™, Instem, Stone, United Kingdom) to process signals, as well as in-house-developed software to detect and identify changes in breathing pattern. Retching and vomiting induced characteristic changes in the breathing pattern of animals and these were recorded by whole-body plethysmography and translated for NOTOCORD recording. A number of preset definitions (computer-based criteria) characteristic for emetic events were determined. Peaks that met the set internal computer-based criteria and exceeded the threshold of more than 600 mV were labeled as emetic events by the system on a standard basis.

The test system of the next data set is α-SMA protein expression. Nature of the data set: α-SMA protein expression of TGF-β-stimulated IPF lung fibroblasts (Western blot replacement assay). Type of data set: cell-based, human. The note with it: alone, up to the highest concentration of 100 nmol/L. The method, then: (§2) Fibroblasts from donors with IPF (IPF-LF) (Asterand, Detroit, MI, United States) were grown in fibroblast basal medium (CC-3131, Lonza Walkersville, Inc., Walkersville, MD, United States) supplemented with FGM-2 SingleQuot Kit Supplements and Growth Factors (CC-4126, Lonza). Cells were grown in a humidified incubator at 37°C and 5% CO2. All assays were performed at passage 7 or 8. For assay set-up, cells were seeded in fibroblast growth medium plus supplements in assay-relevant densities. For TGF-β-stimulated assays, cells were seeded at 4,500 cells per well in 96-well plates. Proliferation assays were performed in 96-well plates at an initial seeding cell density on day 0 of 2,000 cells per well. After 24-h, the cell culture medium was changed to starvation medium (fibroblast basal medium without supplements). After a 24-h starvation period, cells were pre-incubated for 30 min with different concentrations of BI 1015550 plus/minus different concentrations of nintedanib and/or 1 nmol/L PGE2 and stimulated with the assay-relevant stimulus for the indicated time in the presence of the compound.
For determination of α-SMA protein expression, IPF-LF cells were stimulated with TGF-β (4 ng/mL) for 48 h. Lysates were assayed in a Western blot replacement assay (MSD). In short, lysates were pipetted onto high binding plates (MSD) and were sequentially incubated with a mouse anti-human α-SMA antibody (Sigma Aldrich) and an anti-mouse sulfo-tag antibody (MSD). For analysis, an MSD sector imager was used.
On the technique in general: A western blot detects proteins with antibodies after separation by electrophoresis.

Another data set has as its system IPF-LF cells. Put plainly: bFGF plus IL-1β-induced proliferation of IPF lung fibroblasts (bromodeoxyuridine assay). The note with it: Homo sapiens, Fibroblast, read-out: Inhibition of proliferation. The class given is cell-based. The method, then: as §2
IPF-LF cells were stimulated with bFGF (20 ng/mL) plus IL-1β (30 pg/mL). After 72 h of stimulation, 10-times concentrated bromodeoxyuridine was added and the cells were incubated for another 18 h (final concentration bromodeoxyuridine 10 μmol/L). Cell proliferation was assessed by bromodeoxyuridine assay (Roche, Mannheim, Germany) according to the instruction manual.

The target of the next data set is T1, PDE4A (Homo sapiens, UniProt P27815).
T1 construct: PDE4A (NG_029594, AA 156–886); made in house; host or cells: SF9 insect cells (baculovirus, Bac-To-Bac, pFastbac)
T1 sequence (P27815 156-886): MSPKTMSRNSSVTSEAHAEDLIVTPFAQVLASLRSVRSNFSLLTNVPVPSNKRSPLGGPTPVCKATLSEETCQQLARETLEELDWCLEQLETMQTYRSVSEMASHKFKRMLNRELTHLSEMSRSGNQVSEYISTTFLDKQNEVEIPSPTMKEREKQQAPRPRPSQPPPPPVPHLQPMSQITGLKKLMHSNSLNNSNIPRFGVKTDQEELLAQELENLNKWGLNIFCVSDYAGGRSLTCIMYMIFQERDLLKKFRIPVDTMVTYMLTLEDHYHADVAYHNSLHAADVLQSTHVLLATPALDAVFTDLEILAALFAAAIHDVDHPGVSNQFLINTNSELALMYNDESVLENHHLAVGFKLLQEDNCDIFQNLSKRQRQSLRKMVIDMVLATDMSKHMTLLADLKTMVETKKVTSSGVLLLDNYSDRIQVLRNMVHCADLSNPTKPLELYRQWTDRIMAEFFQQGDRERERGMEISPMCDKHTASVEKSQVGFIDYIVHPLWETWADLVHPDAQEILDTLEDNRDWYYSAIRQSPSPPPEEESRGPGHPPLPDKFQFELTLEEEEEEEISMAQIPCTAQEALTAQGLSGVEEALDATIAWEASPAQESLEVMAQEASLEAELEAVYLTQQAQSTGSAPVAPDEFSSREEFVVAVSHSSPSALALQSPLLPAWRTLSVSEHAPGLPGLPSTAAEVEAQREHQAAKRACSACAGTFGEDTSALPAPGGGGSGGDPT
Nature of the data set: Recombinant PDE activity, scintillation proximity assay: PDE4A. The class given is biochemical. To be noted: substrate [3H]cAMP, means from n independent experiments. The method, then: (§3) For the preparation of human recombinant PDEs of interest, the Bac-To-Bac baculoviral expression system from Invitrogen (Carlsbad, CA, United States) was used according to the instruction manual. […] The plasmids were transformed into DH10Bac bacteria, SF9 insect cells were transfected with the bacmid DNA, and the resulting baculoviruses were stored and used for further rounds of infections. For protein production, SF9 cells were infected until a cytopathic effect was visible (after about 72 h), the SF9 cells were harvested and broken up by 3 freeze/thaw cycles, and by shearing 10 times through a 0.1 mm cannula using a syringe. […] The Phosphodiesterase Scintillation Proximity Assays (TRKQ7090 for [^3H]cAMP, GE Healthcare Europe GmbH, Chalfont St Giles, United Kingdom, and TRKQ7100 for [^3H]cGMP, Perkin Elmer, Waltham, MA, United States) were performed essentially according to the instruction manual. […] Assay solutions containing recombinant baculoviral-expressed PDE (to give an activity of 5.000–20.000 cpm corresponding to 5–20% of total activity added), 50 mmol/L Tris/HCl pH 7.5, 8.3 mmol/L MgCl2, 1.7 mmol/L EGTA, and 10 µL radiolabeled substrate (0.05 µCi in H2O) were incubated for 1 h at 30°C (final volume 100 μL).
(In a scintillation proximity assay essentially only radioactivity close to the scintillant gives light.)

The target of the next data set is T2, PDE4B (Homo sapiens, UniProt Q07343).
T2 construct: PDE4B NG_029038: AA 152–484; made in house; host or cells: SF9 insect cells (baculovirus, Bac-To-Bac, pFastbac)
T2 sequence (Q07343 324-656): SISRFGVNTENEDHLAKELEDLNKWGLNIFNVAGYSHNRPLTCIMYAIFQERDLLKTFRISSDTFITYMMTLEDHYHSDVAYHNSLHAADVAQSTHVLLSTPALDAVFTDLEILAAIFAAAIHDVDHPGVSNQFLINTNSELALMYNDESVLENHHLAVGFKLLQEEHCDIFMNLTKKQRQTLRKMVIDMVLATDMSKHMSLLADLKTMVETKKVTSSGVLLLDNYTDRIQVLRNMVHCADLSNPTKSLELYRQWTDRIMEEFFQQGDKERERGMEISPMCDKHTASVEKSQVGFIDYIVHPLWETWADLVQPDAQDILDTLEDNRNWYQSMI
Nature of the data set: Recombinant PDE activity, scintillation proximity assay: PDE4B. The class given is biochemical. The note with it: human recombinant active site fragment, substrate [3H]cAMP, means from n independent experiments; read-out: IC50 PDE4B2. The method, then: as §3

The target of the next data set is T3, PDE4C (Homo sapiens, UniProt Q08493).
T3 construct: made in house; host or cells: SF9 insect cells (baculovirus, Bac-To-Bac, pFastbac)
T3 sequence (Q08493 107-712): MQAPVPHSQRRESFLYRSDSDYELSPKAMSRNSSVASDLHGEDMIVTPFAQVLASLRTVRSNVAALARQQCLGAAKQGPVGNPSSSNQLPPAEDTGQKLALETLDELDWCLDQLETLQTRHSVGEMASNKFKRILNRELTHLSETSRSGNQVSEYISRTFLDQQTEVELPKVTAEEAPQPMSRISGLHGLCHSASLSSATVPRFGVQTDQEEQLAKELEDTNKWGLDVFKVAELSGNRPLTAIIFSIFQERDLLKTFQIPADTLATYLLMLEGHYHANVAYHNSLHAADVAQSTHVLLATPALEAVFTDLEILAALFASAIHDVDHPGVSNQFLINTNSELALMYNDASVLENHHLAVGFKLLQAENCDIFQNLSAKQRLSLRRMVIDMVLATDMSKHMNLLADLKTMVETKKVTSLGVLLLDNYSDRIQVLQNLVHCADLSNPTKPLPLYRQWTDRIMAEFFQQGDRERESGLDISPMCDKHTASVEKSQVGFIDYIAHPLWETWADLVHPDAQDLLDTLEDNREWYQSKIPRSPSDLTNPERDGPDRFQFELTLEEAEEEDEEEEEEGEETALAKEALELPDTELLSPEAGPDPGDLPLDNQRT
Put plainly: Recombinant PDE activity, scintillation proximity assay: PDE4C. Type of data set: biochemical. To be noted: substrate [3H]cAMP, means from n independent experiments, read-out: IC50 PDE4C2. The method, then:
as §3

In a further data set the target is T4, PDE4D (Homo sapiens, UniProt Q08499).
T4 construct: PDE4D NG_027957, AA 79–438; made in house; host or cells: SF9 insect cells (baculovirus, Bac-To-Bac, pFastbac)
T4 sequence (Q08499 381-740): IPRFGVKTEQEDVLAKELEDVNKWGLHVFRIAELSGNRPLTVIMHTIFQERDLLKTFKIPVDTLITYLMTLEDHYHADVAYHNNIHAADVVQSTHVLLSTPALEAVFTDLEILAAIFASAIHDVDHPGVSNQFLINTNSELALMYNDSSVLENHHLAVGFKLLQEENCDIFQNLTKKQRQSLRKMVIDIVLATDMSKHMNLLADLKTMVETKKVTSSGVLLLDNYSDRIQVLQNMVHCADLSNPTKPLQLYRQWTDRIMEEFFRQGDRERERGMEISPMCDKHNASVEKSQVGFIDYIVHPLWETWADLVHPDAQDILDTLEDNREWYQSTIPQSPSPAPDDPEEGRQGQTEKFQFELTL
Put plainly: Recombinant PDE activity, scintillation proximity assay: PDE4D. The class given is biochemical. The note with it: human recombinant active site fragment, substrate [3H]cAMP, means from n independent experiments; read-out: IC50 PDE4D2. The method, then: as §3

SMILES strings stand for the structures.

A word on the ED50: it is the dose that gives a 50% effect, or the effect in half of the subjects. Regarding `O=C(Nc1c(Cl)cncc1Cl)c1ccc(OC(F)F)c(OCC2CC2)c1` [Roflumilast, roflumilast, reference compound], the ED50 in data set [1] and in [2] was 1 mg/kg throughout. Moreover, in the data set on Suncus murinus (10 × ED50 oral (BI 1015550 6 mg/kg, roflumilast 10 mg/kg)), the Animals showing emesis is recorded as 10/24. Moreover, the “% of vomiting animals, emesis at 10 × ED50” value with Suncus murinus (oral (BI 1015550 6 mg/kg, roflumilast 10 mg/kg), 24 animals) is recorded as 42%.
Turning to `COC(=O)c1ccc2c(c1)NC(=O)/C2=C(\Nc1ccc(N(C)C(=O)CN2CCN(C)CC2)cc1)c1ccccc1` [Nintedanib, nintedanib, reference compound], in the data set on α-SMA protein expression, the “Inhibitory effect on α-SMA protein expression” value is “no inhibitory effect”. The inhibition at 0.1 µM in the data set with IPF-LF cells amounted to 15%.
For orientation: IC50 means the concentration that inhibits the measured activity by half. Take `O=C(Nc1c(Cl)c[n+]([O-])cc1Cl)c1ccc(OC(F)F)c(OCC2CC2)c1` [Roflu-N-Ox, roflumilast N-oxide, reference compound]: the IC50 on PDE4A was 2.8 nM; on PDE4B it was 1.4 nM; at PDE4C, 15 nM; on PDE4D it was 1.4 nM.

These data come from article PMC9065678, “BI 1015550 is a PDE4B Inhibitor and a Clinical Drug Candidate for the Oral Treatment of Idiopathic Pulmonary Fibrosis” (Frontiers in Pharmacology, 2022).
